Measurements as given in article PMC11850406, “Large-scale screening of HIV-1 T-cell epitopes restricted by 12 prevalent HLA-A allotypes in Northeast Asia and universal detection of HIV-1-specific CD8^+ T cells” (Frontiers in Microbiology, 2025).
pIC50: −log10 of the molar value. Read-outs that look alike come from different tables or passages of the source. Where no end group is shown, it is not given here.

Experiments:
[1] = target: T1, HLA-A1101 (Homo sapiens, UniProt P04439, A114D/D185E/E176A/F33Y/L180Q/S129P/T187R); test: cell-based; format: binding; conditions: for 5-μM inhibition (%) / inhibition at 5 µM: peptide 5 μM vs FITC-labeled reference peptide 300 nM; for 5-μM inhibition (%) / 15-μM inhibition (%) / inhibition at 5 µM / inhibition at 15 µM: 24 h, 4°C, flow cytometry; for 15-μM inhibition (%) / inhibition at 15 µM: peptide 15 μM vs FITC-labeled reference peptide 300 nM; for inhibition at 5 µM: read-out: 5-μM inhibition (%); for inhibition at 15 µM: read-out: 15-μM inhibition (%)
T1 construct: expressed in transfected cells; host or cells: HMy2.CIR

[2] = target: HLA-A2402 (Homo sapiens, UniProt P04439, D101N/D140Y/D185E/E176V/E190D/F33S/G103R/G107R/I119L/I121M/I306V/K335N/L105A/L180Q/L300P/N151K/N90K/Q86E/Q94H/R106L/R138H/R89G/T104I/T345S/V100E/W191G/Y123F); test: cell-based; format: binding; conditions: for inhibition at 5 µM / inhibition at 15 µM / 5-μM inhibition (%) / 15-μM inhibition (%): A2402, 24 h, 4°C, flow cytometry; for inhibition at 5 µM / 5-μM inhibition (%): peptide 5 μM vs FITC-labeled reference peptide 300 nM; for inhibition at 15 µM / 15-μM inhibition (%): peptide 15 μM vs FITC-labeled reference peptide 300 nM
[3] = A1101, class from inhibition at 5 and 15 μM of FITC-labeled reference peptide binding, read-out: Affinity

Sequence | pIC50 [2] | inhibition at 5 µM [2] [%] | inhibition at 15 µM [2] [%] | inhibition at 5 µM ([1]; A1101) [%] | inhibition at 15 µM ([1]; A1101) [%] | pIC50 [1] | further results
SSWSNKSQK [Peptide P24] | – | – | – | – | – | – | 5-μM inhibition (%) ([1]; A1101): 20.55%; 15-μM inhibition (%) ([1]; A1101): 36.55%
MYSPVSILDI [Peptide P53] | > 5.30 | 75.5 | 98.1 | – | – | – | –
KYRLKHLVW [Peptide P54] | 4.82 to 5.30 | 35.8 | 79.5 | – | – | – | –
IWGKTPKFRL [Peptide P62] | – | – | – | – | – | – | 5-μM inhibition (%) [2]: 21.17%; 15-μM inhibition (%) [2]: 37.66%
RTAHTNDVK [Peptide P39] | – | – | – | 60.4 | 86.2 | – | pIC50 [1, 3]: > 5.30
SILRGGKLDK [Peptide P30] | – | – | – | – | – | – | 5-μM inhibition (%) ([1]; A1101): 19.77%; 15-μM inhibition (%) ([1]; A1101): 47.09%
SVIKQACPK [Peptide P21] | – | – | – | 29.7 | 68.9 | 4.82 to 5.30 | –
GSNFTSAAVK [Peptide P37] | – | – | – | 74 | 91 | > 5.30 | –
IVKCFNCGK [Peptide P32] | – | – | – | – | – | – | 5-μM inhibition (%) ([1]; A1101): 20.16%; 15-μM inhibition (%) ([1]; A1101): 36.81%
IVIWGKTPK [Peptide P43] | – | – | – | 80.2 | 90.1 | > 5.30 | –
ITNWLWYIK [Peptide P20] | – | – | – | 69.8 | 71 | > 5.30 | –
FYCNTSGLF [Peptide P46] | > 5.30 | 95 | 99.5 | – | – | – | –
IYKRWIILGL [Peptide P56] | – | – | – | – | – | – | 5-μM inhibition (%) [2]: 20.61%; 15-μM inhibition (%) [2]: 25.51%
TYQIYQEPF [Peptide P58] | > 5.30 | 54.1 | 95.3 | – | – | – | –
ELYPLTSLK [Peptide P29] | – | – | – | 51.1 | 79.9 | > 5.30 | –
TTLFCASDAK [Peptide P28] | – | – | – | 78.4 | 92.2 | > 5.30 | –
TVQPIQLPEK [Peptide P35] | – | – | – | 88.7 | 93.9 | > 5.30 | –
RQGTISFNF [Peptide P61] | – | – | – | – | – | – | 5-μM inhibition (%) [2]: 12.82%; 15-μM inhibition (%) [2]: 41.47%

Sequence | pIC50 [2] | inhibition at 5 µM [2] [%] | inhibition at 15 µM [2] [%] | inhibition at 5 µM ([1]; A1101) [%] | inhibition at 15 µM ([1]; A1101) [%] | pIC50 [1] | further results
CTPAGYAILK [Peptide P23] | – | – | – | 70.1 | 88.1 | – | pIC50 [1, 3]: > 5.30
WYIKIFIII [Peptide P48] | – | – | – | – | – | – | 5-μM inhibition (%) [2]: 1.56%; 15-μM inhibition (%) [2]: 6.91%
WWMEYWQATW [Peptide P57] | 4.82 to 5.30 | 29.2 | 70.7 | – | – | – | –
SVPLDESFRK [Peptide P42] | – | – | – | 89.9 | 93.8 | > 5.30 | –
ATESIVIWGK [Peptide P36] | – | – | – | 88.3 | 90.7 | > 5.30 | –
FYCNTTKLF [Peptide P49] | 4.82 to 5.30 | 49.2 | 60.5 | – | – | – | –
VQMAVFIHNF [Peptide P64] | 4.82 to 5.30 | 31.2 | 50.2 | – | – | – | –
VTENFNMWK [Peptide P26] | – | – | – | 86.6 | 92.9 | > 5.30 | –
ASCDQCQLK [Peptide P38] | – | – | – | – | – | – | 5-μM inhibition (%) ([1]; A1101): 12.62%; 15-μM inhibition (%) ([1]; A1101): 33.56%
SVQCTHGIK [Peptide P25] | – | – | – | 61.4 | 85.6 | – | pIC50 [1, 3]: > 5.30
NYTNQIYEI [Peptide P47] | > 5.30 | 87.5 | 94.5 | – | – | – | –
YWQATWIPEW [Peptide P60] | > 5.30 | 97.5 | 97.8 | – | – | – | –
PYNTPVFAI [Peptide P63] | 4.82 to 5.30 | 25.7 | 55.6 | – | – | – | –
GTYTPNGTK [Peptide P22] | – | – | – | 43.2 | 87.4 | 4.82 to 5.30 | –
WYIKIFIMI [Peptide P51] | – | – | – | – | – | – | 5-μM inhibition (%) [2]: 3.34%; 15-μM inhibition (%) [2]: 29.97%
HYMLKHLVW [Peptide P55] | – | – | – | – | – | – | 5-μM inhibition (%) [2]: 13.48%; 15-μM inhibition (%) [2]: 31.20%
MYSPTSILDI [Peptide P52] | 4.82 to 5.30 | 21.6 | 79.4 | – | – | – | –
